Drawing on patent US8937176B2, “Compounds” (Boehringer Ingelheim International GmbH, priority 2011, dated 2015), this text covers EC50 for six compounds.

For orientation: EC50 means the concentration giving half of the maximal effect.

In this experiment the target is T1, human recombinant mGluR5 (Homo sapiens, UniProt P41594).
T1 construct: expressed in transfected cells; host or cells: HEK 293 cell line
Nature of the experiment: Positive modulation of mGluR5, calcium based FLIPR assay in HEK 293 cells. The settings on record: EC50 of the modulation; HEK 293 cell line expressing human recombinant mGluR5; glutamate at approximately 5% basal stimulation; peak height of Ca release fluorescence signal. On the procedure:
The positive modulation of mGluR5 is measured in a HEK 293 cell line expressing human recombinant mGluR5 and is detected with calcium based FLIPR assay. The cells are cultured with DMEM supplemented with 10% FCS, 2 μg/mL tetracycline, 100 μg/mL hygromycin and 500 μg/mL gneticin. The cell culture media is exchanged for tetracycline-free cell culture media 3-7 days before the assay. One day before the assay the cell culture medium is exchanged to DMEM without glutamine and phenol red and supplemented with 10% FCS, 100 μg/mL hygromycin and 500 μg/mL geneticin. On the assay day, the medium of the subconfluent cultures is removed and the cells are detached by addition of 2.5 ml EDTA(0.02%) per 175 cm2 culture flask for 1 minute. The cells are resuspend in Ringer solution (140 mM NaCl, 5 mM KCl, 2.5 mM CaCl2, 1.5 mM MgCl2, 5 mM Glucose, 10 mM Hepes; adjusted to pH 7.4 with NaOH), pooled and Ringer solution added to adjust the volume to 50 mL. The cell suspension is centrifuged for […] at 1500 U/min (425 g). The supernatant is removed and the cells washed a second time with 50 ml fresh Ringer solution and centrifuged again as before. The supernatant is again removed and the pellet resuspended in Ringer solution to 1,000,000 cells/ml (1×10^6 cells/mL). The cells are plated onto BD BioCoat Poly-D-Lysine 384 well plates (20.000 cells/well; 20 μl/well). The lid covered plates are then incubated until use at 37° C./10% CO2. For dye loading, 20 μl of Calcium-4 assay kit solution (prepared according to the manufacturer's description in Ringer solution) are added to the cells and the plates are incubated for 80 min 37° C. and then 10 min at room temperature.
Controls, Compound Dilution and Assay Execution:
Each assay plate contained wells with “high” and “low” controls:
Low controls 1% DMSO/ringer solution+basal glutamate activation (defined as 100% CTL).
High controls 10 μM CDPPB+basal glutamate activation (defined as 200% CTL).
Test compounds are dissolved and diluted in DMSO to 100-fold the desired concentrations. In a second step, the compounds are diluted in Ringer solution such that the compounds are 4-fold more concentrated than the desired final assay concentration. The final DMSO concentration was 1%.
20 μl of each compound solution are then transferred to the assay plate and the Ca2+ kinetic is measured to determine any intrinsic compound activity. After 5 min incubation in the FLIPR device, the second stimulation with 20 μl of glutamate in Ringer solution (glutamate concentration adjusted to approximately 5% basal stimulation of the maximal possible glutamate effect) is added and the kinetic Ca2+ response of the wells was measured for the modulation effect.
The peak height of the Ca release related fluorescence signal (9-66) is used for the EC50. The EC50 of the modulation is calculated over a nonlinear regression with GraphPad Prism (Table 1).

T1 sequence (P41594 21-1212): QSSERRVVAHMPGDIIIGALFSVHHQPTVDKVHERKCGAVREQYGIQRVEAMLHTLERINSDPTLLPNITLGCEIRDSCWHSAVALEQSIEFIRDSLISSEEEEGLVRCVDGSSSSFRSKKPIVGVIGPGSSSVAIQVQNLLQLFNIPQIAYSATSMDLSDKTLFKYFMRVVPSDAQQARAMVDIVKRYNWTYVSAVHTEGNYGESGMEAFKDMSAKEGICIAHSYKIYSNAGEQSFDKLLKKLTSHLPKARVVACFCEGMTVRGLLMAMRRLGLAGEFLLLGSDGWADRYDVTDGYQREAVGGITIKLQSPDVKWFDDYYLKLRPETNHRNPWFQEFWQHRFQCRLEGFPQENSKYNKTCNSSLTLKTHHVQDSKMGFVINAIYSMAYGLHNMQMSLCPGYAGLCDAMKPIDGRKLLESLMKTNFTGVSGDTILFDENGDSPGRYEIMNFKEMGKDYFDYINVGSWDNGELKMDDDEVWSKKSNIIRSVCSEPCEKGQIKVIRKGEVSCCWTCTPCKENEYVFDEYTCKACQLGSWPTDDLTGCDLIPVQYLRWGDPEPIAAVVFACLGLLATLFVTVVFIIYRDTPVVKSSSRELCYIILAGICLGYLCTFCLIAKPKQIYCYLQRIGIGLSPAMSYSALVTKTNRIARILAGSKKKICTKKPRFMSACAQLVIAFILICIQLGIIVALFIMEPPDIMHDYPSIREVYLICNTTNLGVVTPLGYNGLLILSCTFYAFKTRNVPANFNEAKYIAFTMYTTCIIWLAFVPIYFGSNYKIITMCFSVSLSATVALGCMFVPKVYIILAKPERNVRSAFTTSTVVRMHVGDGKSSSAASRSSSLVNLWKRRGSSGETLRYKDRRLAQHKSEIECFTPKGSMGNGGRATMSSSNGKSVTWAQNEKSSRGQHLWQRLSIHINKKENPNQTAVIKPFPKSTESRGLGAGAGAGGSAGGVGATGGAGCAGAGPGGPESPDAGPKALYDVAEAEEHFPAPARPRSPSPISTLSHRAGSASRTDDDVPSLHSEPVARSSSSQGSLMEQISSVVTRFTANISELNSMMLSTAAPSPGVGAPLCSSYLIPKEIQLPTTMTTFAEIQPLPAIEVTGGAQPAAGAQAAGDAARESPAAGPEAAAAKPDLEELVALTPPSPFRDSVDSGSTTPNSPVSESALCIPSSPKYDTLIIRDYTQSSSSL

As to `Cc1cc(-c2cn(-c3ccccc3)c(CC(=O)N3CCN(c4ccccn4)CC3)n2)ccc1F` [Example 7.04.42.], the EC50 was determined as 24 nM.
Regarding `COc1cc(N2CCN(C(=O)Cc3nc(-c4ccc(F)c(C)c4)cn3-c3ccccc3)CC2)ncn1` [Example 7.04.43.], the EC50 was determined as 19 nM.
Consider `Cc1cc(-c2cn(-c3ccccc3)c(CC(=O)N3CCN(c4ncccn4)CC3)n2)ccc1F` [Example 7.04.44.], for which the EC50 was 11 nM.
Turning to `COc1ccnc(N2CCN(C(=O)Cc3nc(-c4ccc(F)c(C)c4)cn3-c3ccccc3)CC2)c1` [Example 7.04.45.], the EC50 stood at 28 nM.
In the case of `COc1cnc(N2CCN(C(=O)Cc3nc(-c4ccc(F)c(C)c4)cn3-c3ccccc3)CC2)nc1` [Example 7.04.46.], the EC50 was 21 nM.
The result for `CCn1cc(-c2ccc(F)c(C)c2)nc1CC(=O)N1CCN(c2ncccn2)CC1` [Example 7.05.01, 2-(1-Ethyl-4-(4-fluoro-3-methyl-phenyl)-1H-imidazol-2-yl)-1-(4-pyrimidin-2-yl-piperazin-1-yl)-ethanone] reads 174 nM.
